Assay results from ChEMBL document CHEMBL1201862, “PubChem BioAssay data set” (2004).
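Following 48 hours of exposure in 96-well plates, responses at five concentrations were used to interpolate endpoints linearly. GI50: concentration for 50% inhibition of growth.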 The source made the active and inactive calls. No stated cut-off is given here; in the data, active = GI50 up to about 1.1 µM and inactive = higher.

How the values were obtained:
Assay in all cases: NCI tumour cell line growth inhibition, 48 h
NCI-H460 = test system: NCI-H460
HCT-15 = test system: HCT-15
MDA-N = test system: MDA-N
OVCAR-5 = test system: OVCAR-5
SK-MEL-2 = test system: SK-MEL-2
HCT-116 = test system: HCT-116
MCF7 = test system: MCF7
NCI/ADR-RES = test system: NCI/ADR-RES
NCI-H23 = test system: NCI-H23
LOX IMVI = test system: LOX IMVI
SK-OV-3 = test system: SK-OV-3
COLO 205 = test system: COLO 205
SF-268 = test system: SF-268
CCRF-CEM = test system: CCRF-CEM
RPMI-8226 = test system: RPMI-8226
CAKI-1 = test system: CAKI-1
NCI-H226 = test system: NCI-H226
OVCAR-8 = test system: OVCAR-8
SW-620 = test system: SW-620
SK-MEL-5 = test system: SK-MEL-5

| SMILES | GI50 (NCI-H460) | GI50 (HCT-15) [µM] | GI50 (MDA-N) | GI50 (OVCAR-5) | GI50 (SK-MEL-2) | GI50 (HCT-116) | GI50 (MCF7) | GI50 (NCI/ADR-RES) | GI50 (NCI-H23) | GI50 (LOX IMVI) | GI50 (SK-OV-3) | GI50 (COLO 205) | GI50 (SF-268) | GI50 (CCRF-CEM) | GI50 (RPMI-8226) | GI50 (CAKI-1) | GI50 (NCI-H226) | GI50 (OVCAR-8) | GI50 (SW-620) | GI50 (SK-MEL-5) |
| --- | --- | --- | --- | --- | --- | --- | --- | --- | --- | --- | --- | --- | --- | --- | --- | --- | --- | --- | --- | --- |
| COc1ccc(-c2cc3c(c4cc(OC)ccc24)C(=O)OC3=O)cc1 | > 100 µM (inactive) | > 100 | 86.5 µM (inactive) | > 100 µM (inactive) | > 100 µM (inactive) | > 100 µM (inactive) | > 100 µM (inactive) | > 100 µM (inactive) | > 100 µM (inactive) | > 100 µM (inactive) | > 100 µM (inactive) | > 100 µM (inactive) | > 100 µM (inactive) | > 100 µM (inactive) | > 100 µM (inactive) | > 100 µM (inactive) | > 100 µM (inactive) | > 100 µM (inactive) | > 100 µM (inactive) | > 100 µM (inactive) |
| CN(C)CC1CN(C(=O)Nc2ccccc2)C(=N)O1 (stereo not given) | > 100 µM (inactive) | > 100 | 83.2 µM (inactive) | > 100 µM (inactive) | > 100 µM (inactive) | > 100 µM (inactive) | > 100 µM (inactive) | > 100 µM (inactive) | > 100 µM (inactive) | > 100 µM (inactive) | > 100 µM (inactive) | > 100 µM (inactive) | > 100 µM (inactive) | > 100 µM (inactive) | > 100 µM (inactive) | > 100 µM (inactive) | > 100 µM (inactive) | > 100 µM (inactive) | > 100 µM (inactive) | > 100 µM (inactive) |
| CCOC(=O)c1nc2ccc(C(F)(F)F)cc2nc1NCc1ccc(OC)cc1 | 28 µM (inactive) | 82.8 | > 100 µM (inactive) | > 100 µM (inactive) | 97.9 µM (inactive) | 53.1 µM (inactive) | 43.2 µM (inactive) | 68.4 µM (inactive) | 84.1 µM (inactive) | 48.6 µM (inactive) | > 100 µM (inactive) | 93.8 µM (inactive) | > 100 µM (inactive) | > 100 µM (inactive) | 69.8 µM (inactive) | > 100 µM (inactive) | > 100 µM (inactive) | > 100 µM (inactive) | > 100 µM (inactive) | 58.2 µM (inactive) |
| CCOC(=O)CCC(C(=O)OCC)n1nnc2cc(Nc3c(C)[n+]([O-])c4cc(Cl)ccc4[n+]3[O-])ccc21 (stereo not given) | 48.3 µM (inactive) | 43.9 | > 100 µM (inactive) | 62.8 µM (inactive) | 77.8 µM (inactive) | 47.9 µM (inactive) | 28.2 µM (inactive) | 35.1 µM (inactive) | 60.5 µM (inactive) | 69.2 µM (inactive) | > 100 µM (inactive) | 41.7 µM (inactive) | 38.4 µM (inactive) | 35.6 µM (inactive) | 37.2 µM (inactive) | 93.3 µM (inactive) | 32.9 µM (inactive) | > 100 µM (inactive) | 88.7 µM (inactive) | 49.8 µM (inactive) |
| O=C(NC(Cc1c[nH]c2ccccc12)C(=O)O)/C(=C/c1ccccc1)NC(=O)c1ccccc1 (stereo not given) | 68.1 µM (inactive) | > 55.1 | 82.4 µM (inactive) | 56.1 µM (inactive) | 57.5 µM (inactive) | > 80.4 µM (inactive) | 50 µM (inactive) | 36.6 µM (inactive) | > 83.2 µM (inactive) | > 100 µM (inactive) | 54.2 µM (inactive) | > 100 µM (inactive) | > 100 µM (inactive) | > 66.4 µM (inactive) | 32.4 µM (inactive) | > 95.1 µM (inactive) | > 100 µM (inactive) | 57.5 µM (inactive) | > 100 µM (inactive) | 37 µM (inactive) |
